One test has as its target rhIDO1 (Homo sapiens, UniProt P14902). As to the kind of experiment: Enzyme-based IDO1 activity assay (kynurenine absorbance at 492 nm). Format: biochemical. Particulars: for inhibition at 50 µM: shown when calculated IC50 >50 μM, read-out: IDO inhibition rate (%) at 50 μM; for IC50: rhIDO1 0.05 μM, 37 °C, 45 min, read-out: IDO IC50. On the procedure: (§1) The compounds on IDO1 or TDO activity were determined as follows: A standard reaction mixture (100 μL) containing 100 mM potassium phosphate buffer (pH 6.5), 40 mM ascorbic acid (neutralized with NaOH), 200 μg/mL catalase, 20 μM methylene blue and 0.05 μM rhIDO1 or rhTDO was added to the solution containing the substrate L-tryptophan and the test sample at a determined concentration. […] The yellow pigment derived from kynurenine was measured at 492 nm using a SYNERGY-H1 microplate reader (Biotek Instruments, Inc., Winooski, VT, USA). IC50 was analyzed using the GraphPad Prism 8.0 software (GraphPad Software, San Diego, CA, USA).

Another test addresses rhTDO (Homo sapiens, UniProt P48775). As to the kind of experiment: Enzyme-based TDO activity assay (kynurenine absorbance at 492 nm). In kind it is biochemical. Particulars: for inhibition at 50 µM: shown when calculated IC50 >50 μM, read-out: TDO inhibition rate (%) at 50 μM; for inhibition at 50 µM / TDO IC50 or %: at 50 μM; for TDO IC50 or %: dash symbol. The procedure: as §1

In the next test the test system is MCF7. Nature of the test: Cell viability MTT assay, 72 h. Format: cell-based. To be noted: Homo sapiens; for inhibition at 50 µM: shown when calculated IC50 >50 μM, read-out: MCF7 inhibition rate (%) at 50 μM; for IC50: read-out: MCF7 IC50. On the procedure: (§2) B16-F10 mouse melanoma cells, NCI-H460 human lung cancer cell line and MCF7 were obtained from American Type Culture Collection (ATCC). All the cell lines were cultured with Dulbecco’ modified Eagle’s medium (DMEM) (Invitrogen Corporation, Waltham, MA, USA) supplemented with 10% fetal bovine serum (FBS) (Hyclone, Waltham, MA, USA) and 1% penicillin streptomycin (Invitrogen) at 37 °C in 5% CO2.
(§3) The in vitro inhibitory effects of the compounds were measured by MTT assay. Briefly, different kinds of cells were plated in 96-well plates at a density of 2000/well. After attachment for overnight at 37 °C, the cells were treated with the compounds at various concentrations. After 72 h culture, the MTT reagent was added to each well, and plates were incubated for another 4 h at 37 °C. Then, the blue-purple crystal formamidine was dissolved in DMSO after discarding the supernatant. Samples were measured using microplate reader at a wavelength of 570 nm (Biotek Instruments, Inc., Winooski, VT, USA). IC50 values were calculated with GraphPad Prism 8.0 software.

The subject of test [1] is NCI-H460 human lung cancer cell line. As to the kind of experiment: Cell viability MTT assay, 72 h. Particulars: for inhibition at 50 µM: shown when calculated IC50 >50 μM, read-out: H460 inhibition rate (%) at 50 μM. In kind it is cell-based. The procedure:
as §2, §3

As a reminder, the inhibition is the percentage by which the read-out fell short of the control. As usually defined, the IC50 is the concentration that gives 50% inhibition.

Chain of rhIDO1 (P14902 whole entry): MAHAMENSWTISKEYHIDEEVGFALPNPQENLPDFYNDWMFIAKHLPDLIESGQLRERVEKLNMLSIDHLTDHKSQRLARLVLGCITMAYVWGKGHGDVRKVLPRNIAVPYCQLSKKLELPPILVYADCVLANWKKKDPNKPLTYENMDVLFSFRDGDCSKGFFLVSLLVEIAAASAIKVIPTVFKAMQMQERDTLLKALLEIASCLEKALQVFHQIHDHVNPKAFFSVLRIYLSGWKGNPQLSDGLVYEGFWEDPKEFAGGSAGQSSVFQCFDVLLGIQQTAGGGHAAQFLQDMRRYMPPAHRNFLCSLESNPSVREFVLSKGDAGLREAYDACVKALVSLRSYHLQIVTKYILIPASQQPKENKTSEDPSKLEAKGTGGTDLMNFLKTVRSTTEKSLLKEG
Chain of rhTDO (P48775 whole entry): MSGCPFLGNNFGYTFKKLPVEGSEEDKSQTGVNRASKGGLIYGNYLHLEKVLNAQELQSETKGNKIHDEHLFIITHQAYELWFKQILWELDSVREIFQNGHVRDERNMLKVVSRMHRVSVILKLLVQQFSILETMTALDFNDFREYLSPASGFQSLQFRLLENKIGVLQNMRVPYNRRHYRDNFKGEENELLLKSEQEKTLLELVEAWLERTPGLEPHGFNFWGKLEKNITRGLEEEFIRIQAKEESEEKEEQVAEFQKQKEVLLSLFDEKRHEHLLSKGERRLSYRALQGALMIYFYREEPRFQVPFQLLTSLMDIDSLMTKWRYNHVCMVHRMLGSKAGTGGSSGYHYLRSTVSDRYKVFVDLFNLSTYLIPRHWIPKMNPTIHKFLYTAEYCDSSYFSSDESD

For `O=C1CC(Cc2c[nH]c3ccccc23)C(=O)N1` (racemic) [DX-02-02, (R/S) 3-((1H-indol-3-yl)methyl)pyrrolidine-2,5-dione], the inhibition at 50 µM on rhIDO1 (at 50 μM) was 7.2%; at rhTDO, 2.3%.

With `CCOC(=O)c1[nH]c2ccc(F)cc2c1C1CC(=O)NC1=O` (racemic) [DX-02-03, (R/S) Ethyl 3-(2,5-dioxopyrrolidin-3-yl)-5-fluoro-1H-indole-2-carboxylate], the inhibition at 50 µM is 21.6% on rhIDO1 (at 50 μM), 15.4% on rhTDO, 22.1% with MCF7 and 21.7% in test [1].

On to `O=C1CC(c2c(/C=N/O)[nH]c3ccc(F)cc23)C(=O)N1` (racemic) [DX-02-04, (R/S) (E)-3-(2,5-dioxopyrrolidin-3-yl)-5-fluoro-1H-indole-2-carbaldehyde oxime], for which the inhibition at 50 µM at rhIDO1 (at 50 μM) was 40.2%; at rhTDO it was 14.5%.

With `O=C1CC(c2c(CNO)[nH]c3ccc(F)cc23)C(=O)N1` (racemic) [DX-02-05, (R/S) 3-(5-fluoro-2-((hydroxyamino)methyl)-1H-indol-3-yl)pyrrolidine-2,5-dione], the inhibition at 50 µM on rhIDO1 (at 50 μM) is 12.5%; at rhTDO, 16.3%.

Take `CSc1[nH]c2ccc(F)cc2c1C1CC(=O)NC1=O` (racemic) [DX-02-06, (R/S) 3-(5-fluoro-2-(methylthio)-1H-indol-3-yl)pyrrolidine-2,5-dione]: the inhibition at 50 µM on rhIDO1 (at 50 μM) was 22.6%; at rhTDO, 19.6%; with MCF7, 19.9%; in test [1], 30.1%.

Consider `C[S+]([O-])c1[nH]c2ccc(F)cc2c1C1CC(=O)NC1=O` (racemic) [DX-02-07, (R/S) 3-(5-fluoro-2-(methylsulfinyl)-1H-indol-3-yl)pyrrolidine-2,5-dione], for which the inhibition at 50 µM was 20.1% at rhIDO1 (at 50 μM), 13.9% on rhTDO, 11% in the test with MCF7 and 15.2% in test [1].

Turning to `O=C(O)c1cc2ccccc2[nH]1` [DX-01-01], the inhibition at 50 µM was 9.7% at rhIDO1 (at 50 μM) and 8.9% at rhTDO.

Consider `Cc1cccc2[nH]cc(C(=O)O)c12` [DX-01-02, 4-methyl-1H-indole-3-carboxylic Acid], for which the inhibition at 50 µM is 2.4% at rhIDO1 (at 50 μM), 10% at rhTDO and 39.2% in test [1]. In the test with MCF7, the IC50 was 43.1 µM.

For `Cc1ccc2[nH]cc(C(=O)O)c2c1` [DX-01-03, 5-methyl-1H-indole-3-carboxylic Acid], the inhibition at 50 µM is 10.3% at rhIDO1 (at 50 μM), 10.1% at rhTDO, 37.6% in the test with MCF7 and 26.3% in test [1].

With `O=C(O)c1c[nH]c2ccc([N+](=O)[O-])cc12` [DX-01-04, 5-nitro-1H-indole-3-carboxylic Acid], the inhibition at 50 µM at rhIDO1 (at 50 μM) was 3.3%; on rhTDO, 6%; in the test with MCF7, 24.3%; in test [1], 15.1%.

Take `O=C(O)c1c[nH]c2cc([N+](=O)[O-])ccc12` [DX-01-05, 6-nitro-1H-indole-3-carboxylic Acid]: the inhibition at 50 µM at rhIDO1 (at 50 μM) was 10.2%; on rhTDO it was 10.5%; with MCF7, 29.7%; in test [1], 5.9%.

With `COc1ccc2[nH]cc(C(=O)O)c2c1` [DX-01-06, 5-methoxy-1H-indole-3-carboxylic Acid], the inhibition at 50 µM on rhIDO1 (at 50 μM) was 6.2%; on rhTDO it was 8.4%; in the test on MCF7 it was 25.7%; in test [1] it was 11.2%.

Consider `O=C(O)c1c[nH]c2c(Br)cccc12` [DX-01-07, 7-bromo-1H-indole-3-carboxylic Acid], for which the inhibition at 50 µM was 7.4% at rhIDO1 (at 50 μM), 16.9% on rhTDO, 34.6% in the test on MCF7 and 22.2% in test [1].

On to `O=[N+]([O-])c1c[nH]c2ccccc12` [DX-01-08], for which the inhibition at 50 µM on rhIDO1 (at 50 μM) is 10.9%; on rhTDO, 3.2%.

`N#Cc1c[nH]c2ccccc12` [DX-01-09]: the inhibition at 50 µM at rhIDO1 (at 50 μM) was 2.6%; at rhTDO, 7.8%.

On to `N#CCc1c[nH]c2ccccc12` [DX-01-10], for which the inhibition at 50 µM on rhIDO1 (at 50 μM) was 2.1%; on rhTDO, 8.9%.

`COc1ccc2[nH]cc(CCNC(C)=O)c2c1` [DX-01-11]: the “IDO IC50 or %” value at rhIDO1 (at 50 μM, dash symbol) is “-”. Moreover, the inhibition at 50 µM on rhTDO was 3.8%.

Turning to `O=C(NO)c1c[nH]c2ccccc12` [DX-01-12], the inhibition at 50 µM is 47.1% on rhIDO1 (at 50 μM) and 33.9% on rhTDO.

With `O/N=C/c1c[nH]c2ccccc12` [DX-01-13, (E) 1H-indole-3-carbaldehyde Oxime], the inhibition at 50 µM on rhIDO1 (at 50 μM) was 19.7%; at rhTDO, 8.1%; in the test with MCF7, 10.1%; in test [1] it was 23.1%.

In the case of `ONCc1c[nH]c2ccccc12` [DX-01-14, N-((1H-indol-3-yl)methyl)hydroxylamine], on rhIDO1, the “IDO1 inhibition, in words” value is “moderate” and the concentration for half-maximal inhibition (IC50) came out at 11.1 µM. Further, at rhTDO, the inhibition at 50 µM is 38.2%.

Consider `Cc1ccccc1-c1ccc2[nH]cc(CNO)c2c1` [DX-01-15, N-((5-(o-tolyl)-1H-indol-3-yl)methyl)hydroxylamine], for which, on rhIDO1, the “IDO1 inhibition, in words” value was “moderate” and the IC50 was determined as 21.3 µM. Also, the inhibition at 50 µM on rhTDO is 35.4%.

For `O/N=C/c1cc2ccccc2[nH]1` [DX-01-16, (E)-1H-indole-2-carbaldehyde Oxime], the “IDO1 inhibition, in words” value on rhIDO1 is “moderate”. In addition, at rhIDO1, the IC50 is 23.2 µM. Moreover, the inhibition at 50 µM is 19.7% on rhTDO, 20.9% in the test with MCF7 and 44.5% in test [1].

Turning to `ONCc1cc2ccccc2[nH]1` [DX-01-17, N-((1H-indol-2-yl)methyl)hydroxylamine], on rhIDO1, the “IDO1 inhibition, in words” value was “moderate” and the IC50 stood at 17.7 µM. In addition, the inhibition at 50 µM on rhTDO was 42.2%.

As for `O=c1[nH]c2ccccc2o1` [DX-01-18], the inhibition at 50 µM on rhIDO1 (at 50 μM) is 5.4%. In addition, at rhTDO (Table 1), the “TDO IC50 or %” value is given as “-”.

For `N#CCc1nc2ccccc2o1` [DX-01-20], the inhibition at 50 µM at rhIDO1 (at 50 μM) is 15.7%; at rhTDO it was 3.8%.

Consider `N#CCc1nc2ccccc2[nH]1` [DX-01-22], for which the inhibition at 50 µM on rhIDO1 (at 50 μM) is 13.2%; at rhTDO it was 4.5%.

For the compound `O=C1C/C(=C\c2c[nH]c3ccccc23)C(=O)N1` [DX-02-01, (E)-3-((1H-indol-3-yl)methylene)pyrrolidine-2,5-dione], the inhibition at 50 µM at rhIDO1 (at 50 μM) is 6.3%. In addition, on rhTDO (Table 2), the “TDO IC50 or %” value is “-”.

With `O/N=C/c1ccccc1-c1c[nH]cn1` [DX-03-02, (E) 2-(1H-imidazol-4-yl)benzaldehyde Oxime], the results for the inhibition at 50 µM on rhIDO1 (at 50 μM) and on rhTDO were 24.2% and 13.9%, respectively.

With `O/N=C/c1cc(Cl)ccc1-c1c[nH]cn1` [DX-03-05, (E) 5-chloro-2-(1H-imidazol-4-yl)benzaldehyde Oxime], the inhibition at 50 µM on rhIDO1 (at 50 μM) was 31.3%; on rhTDO, 12.1%.

Take `O/N=C/c1c(F)cccc1-c1c[nH]cn1` [DX-03-06, (E) 2-fluoro-6-(1H-imidazol-4-yl)benzaldehyde Oxime]: the inhibition at 50 µM is 25.6% on rhIDO1 (at 50 μM) and 12.9% at rhTDO.

With `COc1ccc(-c2c[nH]cn2)c(/C=N/O)c1` [DX-03-07, (E) 2-(1H-imidazol-4-yl)-5-methoxybenzaldehyde Oxime], the values for the inhibition at 50 µM on rhIDO1 (at 50 μM) and on rhTDO were 33.5% and 15.1%, respectively.

Consider `O/N=C/c1cc(-c2ccccc2C(F)(F)F)ccc1-c1c[nH]cn1` [DX-03-08, (E) 4-(1H-imidazol-4-yl)-2′-(trifluoromethyl)-[1,1′-biphenyl]-3-carbaldehyde Oxime], for which the inhibition at 50 µM on rhIDO1 (at 50 μM) was 15.6%; at rhTDO, 11.1%.

Consider `NS(=O)(=O)NCCCOc1ccccc1-c1c[nH]cn1` [DX-03-11, N-(3-(2-(1H-imidazol-5-yl)phenoxy)propyl)-aminesulfonamide], for which the IC50 on rhIDO1 was 2.4 µM. Moreover, at rhTDO, the “TDO inhibition, in words” value was “marginal” and the inhibition at 50 µM is 38.2%.

Turning to `CC(=O)O[C@H]1C(=O)[C@@]2(C)[C@H]([C@H](OC(=O)c3ccccc3)[C@]3(O)C[C@H](OC(=O)[C@H](O)[C@@H](NC(=O)c4ccccc4)c4ccccc4)C(C)=C1C3(C)C)[C@]1(OC(C)=O)CO[C@@H]1C[C@@H]2O` [Taxol, reference compound], the 50% inhibitory concentration (IC50) came to 0.015 µM in the test with MCF7 and 6 nM in test [1] (read-out: H460 IC50).

These data come from paper PMC6600671, “Design and Synthesis of Indoleamine 2,3-Dioxygenase 1 Inhibitors and Evaluation of Their Use as Anti-Tumor Agents” (Molecules, 2019).
